The results in this text go back to patent US10934309B2, “Tricyclic quinone derivative” (Boston Biomedical, Inc., priority 2014, dated 2021).

Molecules are shown by their SMILES.

Holding throughout (format): cell-based, human
Assay [1] concerns HCT-116 cells. Briefly: Proliferation inhibition assay of cancer cells (Test Example 1), HCT-116. The conditions noted are these: Homo sapiens, HCT-116, 96 h, HCT-116 cells, cultured for 4 days, Cell Titer-Glo; read-out: IC50 (μM) HCT; concentration for 50% inhibition of cell proliferation (Bulk IC50 value). The protocol: (§1) HCT-116 cells (derived from human colon adenocarcinoma), HT-29 cells (derived from human colon cancer), and FaDu cells (derived from human hypopharynx cancer) were obtained from American Type Culture Collection (ATCC). […] After cells were seeded at 300-600 cells/well onto black μClear-plate 384 well (Greiner bio-one Cat. No. 781091), a test substance was added such that the final concentration of DMSO is 0.1%, and cultured for 4 days. […] A test shown in Test example 1 was carried out for compounds obtained in the Examples.

In assay [2] the test system is FaDu cells. Briefly: Proliferation inhibition assay of cancer cells (Test Example 1), FaDu. The conditions noted are these: Homo sapiens, FaDu, 96 h, FaDu cells, cultured for 4 days, Cell Titer-Glo; read-out: IC50 (μM) FaDu; concentration for 50% inhibition of cell proliferation (Bulk IC50 value). The protocol: as §1
For assay [3], the system named is HT-29 cells. Put plainly: Proliferation inhibition assay of cancer cells (Test Example 1), HT-29. To be noted: Homo sapiens, HT-29, 96 h, HT-29 cells, cultured for 4 days, Cell Titer-Glo; read-out: IC50 (μM) HT; concentration for 50% inhibition of cell proliferation (Bulk IC50 value). The protocol: as §1
In assay [4] the test system is HCT-116 cells. Briefly: Inhibition assay of cancer cell sphere-forming ability (Test Example 2), HCT-116. To be noted: Homo sapiens, HCT-116, 96 h, HCT-116 cells, Ultra-Low Attachment plate, serum-free DMEM/F12 with B27, EGF, bFGF, insulin, 4 days, Cell Titer-Glo; read-out: IC50 (μM) HCT; concentration for 50% inhibition of cell proliferation (Sphere IC50 value). Here is the method:
(§2) HCT-116 cells (derived from human colon adenocarcinoma), HT-29 cells (derived from human colon cancer), FaDu cells (derived from human hypopharynx cancer) were obtained from American Type Culture Collection (ATCC). […] HCT-116 cells, HT-29 cells, and FaDu cells were seeded onto 384 Well Black Clear Bottom Ultra-Low Attachment Microplate (Corning Cat. […] A test substance was added so that the final concentration of DMSO is 0.1%, and then cultured for 4 days. […] A test shown in Test example 2 was carried out for compounds obtained in the Examples.

Assay [5] has as its system FaDu cells. Briefly: Inhibition assay of cancer cell sphere-forming ability (Test Example 2), FaDu. The conditions noted are these: Homo sapiens, FaDu, 96 h, FaDu cells, Ultra-Low Attachment plate, serum-free DMEM/F12 with B27, EGF, bFGF, insulin, 4 days, Cell Titer-Glo; read-out: IC50 (μM) FaDu; concentration for 50% inhibition of cell proliferation (Sphere IC50 value). Here is the method: as §2

The test system of assay [6] is HT-29 cells. Briefly: Inhibition assay of cancer cell sphere-forming ability (Test Example 2), HT-29. To be noted: Homo sapiens, HT-29, 96 h, HT-29 cells, Ultra-Low Attachment plate, serum-free DMEM/F12 with B27, EGF, bFGF, insulin, 4 days, Cell Titer-Glo; read-out: IC50 (μM) HT; concentration for 50% inhibition of cell proliferation (Sphere IC50 value). Here is the method:
as §2

Another assay concerns cancer cells. Briefly: Inhibition test of cancer cell sphere-forming ability, overall statement on Table 2. The conditions noted are these: summary of Table 2. The protocol:
HCT-116 cells (derived from human colon adenocarcinoma), HT-29 cells (derived from human colon cancer), FaDu cells (derived from human hypopharynx cancer) were obtained from American Type Culture Collection (ATCC). HCT-116 cells and HT-29 cells were cultured using McCoy's 5a medium containing 10% fetal bovine serum (FBS) and 1% penicillin/streptomycin, and FaDu cells were cultured using MEM medium containing 10% FBS, 1% non-essential amino acid, 1% sodium pyruvate, and 1% penicillin/streptomycin, respectively, at 37° C. in the presence of 5% CO2. HCT-116 cells, HT-29 cells, and FaDu cells were seeded onto 384 Well Black Clear Bottom Ultra-Low Attachment Microplate (Corning Cat. No. 3827) using DMEM/F12 medium containing 2% B27 supplement (GIBCO), 20 ng/mL epidermal growth factor (EGF) (peprotech), 10 ng/mL basic fibroblast growth factor (bFGF) (peprotech), 5 μg/mL insulin (Sigma), and 1% penicillin/streptomycin to be 350-800 cells/well. A test substance was added so that the final concentration of DMSO is 0.1%, and then cultured for 4 days. The number of living cells was then counted using Cell Titer-Glo (registered trademark) Luminescent Cell Viability Assay (Promega) to calculate the concentration for 50% inhibition of cell proliferation of respective test substances (Sphere IC50 value; μM).

Turning to `CCN(CCOC)Cc1cc2c(s1)C(=O)c1ccncc1C2=O` [Example 24, 2-{[ethyl(2-methoxyethyl)amino]methyl}thieno[2,3-g]isoquinoline-4,9-dione], the IC50 with HCT-116 cells [1] is 0.34 µM; in the assay on FaDu cells [2], 0.03 µM; in the assay with HT-29 cells [3], 0.65 µM; with HCT-116 cells [4], 0.43 µM; in the assay on FaDu cells [5] it was under 0.01 µM; in the assay with HT-29 cells [6], 0.18 µM. For the same compound, the “effect to inhibit cancer cell sphere-forming ability (in words)” value in the assay on cancer cells is recorded as “particularly strong effect”.
Regarding `O=C1c2cc(C(=O)N3CCOCC3)oc2C(=O)c2sccc21` [Example 55, 2-(morpholin-4-ylcarbonyl)thieno[3,2-f][1]benzofuran-4,8-dione], the IC50 stood at 0.05 µM with HCT-116 cells [1]; 0.06 µM in the assay on FaDu cells [2]; 0.58 µM in the assay with HT-29 cells [3]; 0.04 µM in the assay with HCT-116 cells [4]; 0.01 µM in the assay with FaDu cells [5]; 0.04 µM in the assay with HT-29 cells [6]. Also, the “effect to inhibit cancer cell sphere-forming ability (in words)” value with cancer cells was “particularly strong effect”.
With `CC(O)c1cc2c(s1)C(=O)c1ccncc1C2=O` (stereo not drawn) [Example 13, 2-(1-hydroxyethyl)thieno[2,3-g]isoquinoline-4,9-dione], the IC50 in the assay with HCT-116 cells [1] was 0.06 µM; with FaDu cells [2], 0.02 µM; in the assay on HT-29 cells [3] it was 0.37 µM; in the assay with HCT-116 cells [4], 0.05 µM; in the assay on FaDu cells [5] it was under 0.01 µM; in the assay with HT-29 cells [6], 0.06 µM. In addition, the “effect to inhibit cancer cell sphere-forming ability (in words)” value in the assay on cancer cells was “particularly strong effect”.
Regarding `O=C1c2cnccc2C(=O)c2sc(CNCC(F)F)cc21` [Example 26, 2-{[(2,2-difluoroethyl)amino]methyl}thieno[2,3-g]isoquinoline-4,9-dione], the IC50 in the assay on HCT-116 cells [1] is 0.09 µM; with FaDu cells [2], 0.02 µM; in the assay with HT-29 cells [3] it was 0.45 µM; with HCT-116 cells [4] it was 0.17 µM; in the assay with FaDu cells [5], under 0.01 µM; in the assay with HT-29 cells [6] it was 0.07 µM. Further, in the assay on cancer cells, the “effect to inhibit cancer cell sphere-forming ability (in words)” value is listed as “particularly strong effect”.
`CC(=O)N1CCN(Cc2cc3c(s2)C(=O)c2ccncc2C3=O)CC1` [Example 27, 2-[(4-acetylpiperazin-1-yl)methyl]thieno[2,3-g]isoquinoline-4,9-dione]: the IC50 in the assay with HCT-116 cells [1] is 0.5 µM; in the assay on FaDu cells [2] it was 0.03 µM; in the assay on HT-29 cells [3] it was 0.4 µM; in the assay on HCT-116 cells [4], 0.47 µM; in the assay on FaDu cells [5], under 0.01 µM; in the assay on HT-29 cells [6], 0.06 µM. Moreover, in the assay on cancer cells, the “effect to inhibit cancer cell sphere-forming ability (in words)” value was “particularly strong effect”.
Turning to `CCOC(=O)/C=C/c1cc2c(s1)C(=O)c1ccncc1C2=O` [Example 60, ethyl (E)-3-(4,9-dioxo-4,9-dihydrothieno[2,3-g]isoquinolin-2-yl)acrylate], the IC50 in the assay with HCT-116 cells [1] was 2.71 µM; with FaDu cells [2], 0.75 µM; in the assay with HT-29 cells [3], over 10 µM; in the assay with HCT-116 cells [4], 7.41 µM; in the assay with FaDu cells [5], 0.83 µM; in the assay with HT-29 cells [6] it was 8.98 µM.
Turning to `O=C1c2cnccc2C(=O)c2sc(N3CCOCC3)cc21` [Example 32, 2-(morpholin-4-yl)thieno[2,3-g]isoquinoline-4,9-dione], the IC50 in the assay with HCT-116 cells [1] is 6.56 µM; in the assay with FaDu cells [2], 2.15 µM; in the assay with HT-29 cells [3], over 10 µM; with HCT-116 cells [4], 7.7 µM; in the assay on FaDu cells [5], 1.25 µM; in the assay with HT-29 cells [6], over 10 µM.
For `CCOC(c1cc2c(s1)C(=O)c1ccncc1C2=O)C1CC1` (stereo not drawn) [Example 17, 2-[cyclopropyl(ethoxy)methyl]thieno[2,3-g]isoquinoline-4,9-dione], the IC50 in the assay with HCT-116 cells [1] amounted to 0.41 µM; in the assay on FaDu cells [2], 0.84 µM; in the assay with HT-29 cells [3] it was 0.87 µM; in the assay on HCT-116 cells [4], 0.55 µM; with FaDu cells [5] it was 0.05 µM; with HT-29 cells [6], 0.54 µM.
Turning to `CCOC(=O)N(CC)Cc1cc2c(o1)C(=O)c1cccnc1C2=O` [Example 11, ethyl [(4,9-dioxo-4,9-dihydrofuro[2,3-g]quinolin-2-yl)methyl]ethylcarbamate], the IC50 is 0.49 µM with HCT-116 cells [1]; 0.45 µM in the assay with FaDu cells [2]; 3.85 µM in the assay on HT-29 cells [3]; 0.46 µM in the assay on HCT-116 cells [4]; 0.28 µM with FaDu cells [5]; 0.71 µM in the assay on HT-29 cells [6].
With `O=C1c2ccncc2C(=O)c2c(C(=O)N3CCOCC3)csc21` [Example 22, 3-(morpholin-4-ylcarbonyl)thieno[2,3-g]isoquinoline-4,9-dione], the IC50 worked out at 0.48 µM in the assay on HCT-116 cells [1]; 0.44 µM with FaDu cells [2]; 0.81 µM in the assay on HT-29 cells [3]; 0.5 µM in the assay on HCT-116 cells [4]; 0.31 µM in the assay on FaDu cells [5]; 0.16 µM with HT-29 cells [6].
Take `CC1CNCC(C)(C(=O)c2cc3c(s2)C(=O)c2ncccc2C3=O)C1` (stereo not drawn) [Example 39, 2-[(3,5-dimethylpiperidin-5-yl)carbonyl]thieno[3,2-g]quinoline-4,9-dione]: the IC50 with HCT-116 cells [1] is 0.38 µM; in the assay with FaDu cells [2] it was 0.09 µM; with HT-29 cells [3] it was 3.71 µM; in the assay on HCT-116 cells [4] it was 0.35 µM; in the assay on FaDu cells [5], 0.45 µM; in the assay with HT-29 cells [6], 0.55 µM.
As to `CC(=O)c1cc2c(o1)C(=O)c1cccnc1C2=O` [Example 42, 2-acetylfuro[2,3-g]quinoline-4,9-dione], the IC50 in the assay with HCT-116 cells [1] came out at 0.54 µM; in the assay with FaDu cells [2], 0.47 µM; in the assay with HT-29 cells [3], 0.72 µM; in the assay with HCT-116 cells [4], 0.31 µM; with FaDu cells [5], 0.08 µM; in the assay on HT-29 cells [6], 0.59 µM.
With `COC(C)c1cc2c(s1)C(=O)c1ncccc1C2=O` (stereo not drawn) [Example 38, 2-(1-methoxyethyl)thieno[3,2-g]quinoline-4,9-dione], the IC50 in the assay with HCT-116 cells [1] was 0.55 µM; in the assay on FaDu cells [2], 0.44 µM; in the assay on HT-29 cells [3] it was 0.66 µM; in the assay on HCT-116 cells [4], 0.55 µM; in the assay on FaDu cells [5], 0.28 µM; with HT-29 cells [6], 0.59 µM.
As to `CC(C)(O)c1cc2c(s1)C(=O)c1ccncc1C2=O` [Example 15, 2-(2-hydroxypropan-2-yl)thieno[2,3-g]isoquinoline-4,9-dione], the IC50 is 0.34 µM with HCT-116 cells [1]; 0.04 µM in the assay with FaDu cells [2]; 0.61 µM in the assay with HT-29 cells [3]; 0.4 µM in the assay with HCT-116 cells [4]; under 0.01 µM with FaDu cells [5]; 0.46 µM in the assay with HT-29 cells [6]. Also, the “effect to inhibit cancer cell sphere-forming ability (in words)” value in the assay on cancer cells is listed as “particularly strong effect”.
